# From ChEMBL document CHEMBL1201862, “PubChem BioAssay data set” (2004)
#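 Each compound was tested at five concentrations against cells in 96-well plates for 48 hours. GI50 is the concentration that inhibits growth by half.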 Activity calls are given as the source filed them. Cut-off read from the data, not from the text of the source: active = GI50 up to about 1.1 µM and inactive = higher.
# What was measured:
# Test in all cases: NCI-60 cell line screen, 48 h
# Malme-3M = test system: Malme-3M
# A549 = test system: A549
# CCRF-CEM = test system: CCRF-CEM
# Hs-578T = test system: Hs-578T
# HCT-15 = test system: HCT-15
# T47D = test system: T47D
# SK-MEL-2 = test system: SK-MEL-2
# SNB-75 = test system: SNB-75
# SNB-19 = test system: SNB-19
# OVCAR-4 = test system: OVCAR-4
# LOX IMVI = test system: LOX IMVI
# NCI-H226 = test system: NCI-H226
# SF-268 = test system: SF-268
# UACC-62 = test system: UACC-62
# K562 = test system: K562
# HOP-92 = test system: HOP-92
# HCC 2998 = test system: HCC 2998
# NCI-H522 = test system: NCI-H522
# SN12C = test system: SN12C
# 786-0 = test system: 786-0
# MDA-MB-435 = test system: MDA-MB-435
# UACC-257 = test system: UACC-257
# SK-MEL-28 = test system: SK-MEL-28
# KM12 = test system: KM12
# IGROV-1 = test system: IGROV-1
# OVCAR-8 = test system: OVCAR-8
# A498 = test system: A498
# RXF 393 = test system: RXF 393
# CAKI-1 = test system: CAKI-1
# MDA-MB-231 = test system: MDA-MB-231
# SK-OV-3 = test system: SK-OV-3
# SF-295 = test system: SF-295
# SW-620 = test system: SW-620
# HL-60 = test system: HL-60
# OVCAR-3 = test system: OVCAR-3
# HT-29 = test system: HT-29
# SK-MEL-5 = test system: SK-MEL-5
# EKVX = test system: EKVX
# SR = test system: SR
# COLO 205 = test system: COLO 205
# HOP-62 = test system: HOP-62
# MCF7 = test system: MCF7
# OVCAR-5 = test system: OVCAR-5
# NCI/ADR-RES = test system: NCI/ADR-RES
# MOLT-4 = test system: MOLT-4
# NCI-H23 = test system: NCI-H23
# DU-145 = test system: DU-145
# RPMI-8226 = test system: RPMI-8226
# MDA-N = test system: MDA-N
# TK-10 = test system: TK-10
# SF-539 = test system: SF-539
# ACHN = test system: ACHN
# NCI-H460 = test system: NCI-H460
# U-251 = test system: U-251
# PC-3 = test system: PC-3
# M14 = test system: M14
# BT-549 = test system: BT-549
# UO-31 = test system: UO-31
# HCT-116 = test system: HCT-116
# DMS-273 = test system: DMS-273
# M19-MEL = test system: M19-MEL
# KM-20L2 = test system: KM-20L2
# DMS-114 = test system: DMS-114
# SNB-78 = test system: SNB-78
structure (smiles),measurement,setting,value
C[n+]1c(-c2ccc(/C=C/C=N\NC(=O)c3ccc(C(=O)N/N=C\C=C\c4ccc(-c5cn6ccccc6[n+]5C)cc4)cc3)cc2)cn2ccccc21,GI50,Malme-3M,> 100 µM (inactive)
same,GI50,A549,74.1 µM (inactive)
same,GI50,CCRF-CEM,23.9 µM (inactive)
same,GI50,Hs-578T,> 100 µM (inactive)
same,GI50,HCT-15,> 100 µM
same,GI50,T47D,> 48.1 µM (inactive)
same,GI50,SK-MEL-2,> 100 µM (inactive)
same,GI50,SNB-75,> 100 µM (inactive)
same,GI50,SNB-19,> 63.4 µM (inactive)
same,GI50,OVCAR-4,> 81.7 µM (inactive)
same,GI50,LOX IMVI,> 68.7 µM (inactive)
same,GI50,NCI-H226,> 100 µM (inactive)
same,GI50,SF-268,> 100 µM (inactive)
same,GI50,UACC-62,> 100 µM (inactive)
same,GI50,K562,27.5 µM (inactive)
same,GI50,HOP-92,> 100 µM (inactive)
same,GI50,HCC 2998,> 54.7 µM (inactive)
same,GI50,NCI-H522,> 100 µM (inactive)
same,GI50,SN12C,> 100 µM (inactive)
same,GI50,786-0,30.3 µM (inactive)
same,GI50,MDA-MB-435,> 100 µM (inactive)
same,GI50,UACC-257,> 100 µM (inactive)
same,GI50,SK-MEL-28,> 100 µM (inactive)
same,GI50,KM12,39.1 µM (inactive)
same,GI50,IGROV-1,> 68.5 µM (inactive)
same,GI50,OVCAR-8,> 100 µM (inactive)
same,GI50,A498,> 100 µM (inactive)
same,GI50,RXF 393,> 96.2 µM (inactive)
same,GI50,CAKI-1,38.7 µM (inactive)
same,GI50,MDA-MB-231,> 43.3 µM (inactive)
same,GI50,SK-OV-3,> 100 µM (inactive)
same,GI50,SF-295,> 100 µM (inactive)
same,GI50,SW-620,> 100 µM (inactive)
same,GI50,HL-60,30.2 µM (inactive)
same,GI50,OVCAR-3,> 64 µM (inactive)
same,GI50,HT-29,> 100 µM (inactive)
same,GI50,SK-MEL-5,> 84.5 µM (inactive)
same,GI50,EKVX,> 100 µM (inactive)
same,GI50,SR,19.9 µM (inactive)
same,GI50,COLO 205,> 100 µM (inactive)
same,GI50,HOP-62,> 100 µM (inactive)
same,GI50,MCF7,> 94.8 µM (inactive)
same,GI50,OVCAR-5,> 100 µM (inactive)
same,GI50,NCI/ADR-RES,> 100 µM (inactive)
same,GI50,MOLT-4,43.6 µM (inactive)
same,GI50,NCI-H23,71.4 µM (inactive)
same,GI50,DU-145,> 54.3 µM (inactive)
same,GI50,RPMI-8226,38.1 µM (inactive)
same,GI50,MDA-N,> 100 µM (inactive)
same,GI50,TK-10,> 86.3 µM (inactive)
same,GI50,SF-539,> 100 µM (inactive)
same,GI50,ACHN,> 100 µM (inactive)
same,GI50,NCI-H460,> 100 µM (inactive)
same,GI50,U-251,44.7 µM (inactive)
same,GI50,PC-3,> 100 µM (inactive)
same,GI50,M14,> 100 µM (inactive)
same,GI50,BT-549,38.2 µM (inactive)
same,GI50,UO-31,> 100 µM (inactive)
same,GI50,HCT-116,> 100 µM (inactive)
C=C(C)C1CC=C(C)[C@](O)(C2(O)C[C@H](C(=C)C)CC=C2C)C1 (some centres undefined),GI50,A549,> 100 µM (inactive)
same,GI50,CCRF-CEM,> 100 µM (inactive)
same,GI50,SNB-19,> 100 µM (inactive)
same,GI50,DMS-273,> 100 µM (inactive)
same,GI50,UACC-62,> 100 µM (inactive)
same,GI50,HOP-92,> 100 µM (inactive)
same,GI50,NCI-H522,> 100 µM (inactive)
same,GI50,UACC-257,> 100 µM (inactive)
same,GI50,SK-MEL-28,> 100 µM (inactive)
same,GI50,KM12,> 100 µM (inactive)
same,GI50,M19-MEL,> 100 µM (inactive)
same,GI50,IGROV-1,> 100 µM (inactive)
same,GI50,OVCAR-8,> 100 µM (inactive)
same,GI50,A498,> 100 µM (inactive)
same,GI50,RXF 393,> 100 µM (inactive)
same,GI50,SK-OV-3,> 100 µM (inactive)
same,GI50,SF-295,> 100 µM (inactive)
same,GI50,HL-60,> 100 µM (inactive)
same,GI50,KM-20L2,> 100 µM (inactive)
same,GI50,HT-29,> 100 µM (inactive)
same,GI50,EKVX,> 100 µM (inactive)
same,GI50,SR,> 100 µM (inactive)
same,GI50,HOP-62,> 100 µM (inactive)
same,GI50,DMS-114,> 100 µM (inactive)
same,GI50,OVCAR-5,> 100 µM (inactive)
same,GI50,MOLT-4,> 100 µM (inactive)
same,GI50,NCI-H23,> 100 µM (inactive)
same,GI50,TK-10,> 100 µM (inactive)
same,GI50,ACHN,> 100 µM (inactive)
same,GI50,NCI-H460,> 100 µM (inactive)
same,GI50,U-251,> 100 µM (inactive)
same,GI50,M14,> 100 µM (inactive)
same,GI50,UO-31,> 100 µM (inactive)
same,GI50,SNB-78,> 100 µM (inactive)
same,GI50,HCT-116,> 100 µM (inactive)
